Measured values: patent US20160108027A1, “SUBSTITUTED BENZOXAZOLES” (BAYER PHARMA AKTIENGESELLSCHAFT, priority 2013, published 2016)
pIC50: −log10 of the molar value.

Key:
thrombin [1] = molecular target: T1, thrombin (Homo sapiens, UniProt P00734); experiment: Measurement of the thrombin inhibition in buffer; type: biochemical; settings: human thrombin 0.06 nmol/l in Tris buffer pH 7.4, 22° C., substrate Boc-Asp(OBzl)-Pro-Arg-AMC; in some cases means of individual determinations
Protocol: To determine the thrombin inhibition of the substances listed above, a biochemical test system is constructed in which the conversion of a thrombin substrate is used for determining the enzymatic activity of human thrombin. Here, thrombin cleaves aminomethylcoumarin, which is measured fluorescently, from the peptic substrate. The determinations are carried out in microtitre plates.
Substances to be tested are dissolved in various concentrations in dimethyl sulphoxide and incubated for 15 min with human thrombin (0.06 nmol/l dissolved in 50 mmol/l of Tris buffer [C,C,C-tris(hydroxymethyl)aminomethane], 100 mmol/l of sodium chloride, 0.1% BSA [bovine serum albumin], pH 7.4) at 22° C. The substrate (5 μmol/l Boc-Asp(OBzl)-Pro-Arg-AMC from Bachem) is then added. After 30 min of incubation, the sample is excited at a wavelength of 360 nm and the emission is measured at 460 nm. The measured emissions of the test mixtures with test substance are compared to the control mixtures without test substance (only dimethyl sulphoxide instead of test substance in dimethyl sulphoxide) and IC50 values are calculated from the concentration/activity relationships. Representative activity data from this test are given in Table 1 below (in some cases as means of individual determinations): […]

thrombin [2] = molecular target: T1, thrombin; experiment: Determination of the thrombin-inhibitory activity in plasma samples (ecarin-activated); type: biochemical; settings: citrate plasma, ecarin activation, fluorogenic thrombin substrate; in some cases means of individual determinations
Protocol: To determine the inhibition of thrombin in plasma samples, plasma […] is activated by ecarin. Thrombin activity and/or its inhibition by potential inhibitors is/are then measured fluorenscently by addition of a substrate.
The substances to be tested are dissolved in various concentrations in dimethyl sulphoxide and diluted with water. In white 96-well flat-bottomed plates, 20 μl of substance dilution are mixed with 20 μl of ecarin solution (ecarin reagent, from Sigma E-0504, final concentration 20 mU per reaction) in Ca buffer (200 mM Hepes+560 mM sodium chloride+10 mM calcium chloride+0.4% PEG) or with 20 μl of Ca buffer (as unstimulated control). Furthermore, 20 μl of fluorogenic thrombin substrate (from Bachem 1-1120, final concentration 50 μmol/1) and 20 μl of citrate plasma (from Octapharma) are added, and the mixture is homogenized well. The plate is measured in a SpectraFluorplus Reader using a 360 nm excitation filter and a 465 nm emission filter every minute over 20 minutes. […] Representative activity data from this test are given in Table 2 below (in some cases as means of individual determinations): […]

| SMILES | pIC50 (thrombin [1]) | pIC50 (thrombin [2]) |
| --- | --- | --- |
| COc1cc(C(=O)N2CC(C)OCC2C2CC(O)C2)cc2nc(NCc3cc(Cl)ccn3)oc12 (single isomer, unassigned) [Example 52, (2-{[(4-Chloropyridin-2-yl)methyl]amino}-7-methoxy-1,3-benzoxazol-5-yl) [5-(3-hydroxycyclobutyl)-2-methylmorpholin-4-yl]methanone] | 7.55 | 7.47 |
| COc1cc(C(=O)N2CC(C)(C)OCC2(C)CO)cc2nc(NCc3cc(Cl)ccn3)oc12 (single isomer, unassigned) [Example 40, (2-{[(4-Chloropyridin-2-yl)methyl]amino}-7-methoxy-1,3-benzoxazol-5-yl) [5-(hydroxymethyl)-2,2,5-trimethylmorpholin-4-yl]methanone] | 7.74 | 7.48 |
| COCC1C(=O)N2CCC2CN1C(=O)c1cc(OC)c2oc(NCc3cc(Cl)ccn3)nc2c1 (single isomer, unassigned) [Example 74, 4-[(2-{[(4-Chloropyridin-2-yl)methyl]amino}-7-methoxy-1,3-benzoxazol-5-yl)carbonyl]-3-(methoxymethyl)-1,4-diazabicyclo[4.2.0]octan-2-one] | 7.49 | 7.25 |
| COc1cc(C(=O)N2CC(C)(C)OC[C@H]2CCO)cc2nc(NC(C)c3cc(Cl)ccn3)oc12 (stereo partly drawn) [Example 59, (2-{[1-(4-Chloropyridin-2-yl)ethyl]amino}-7-methoxy-1,3-benzoxazol-5-yl)[(5R)-5-(2-hydroxyethyl)-2,2-dimethylmorpholin-4-yl]methanone] | 7.22 | 7.05 |
| COc1cc(C(=O)N2CC(C)(C)OCC2CF)cc2nc(NCc3cc(Cl)ccn3)oc12 (single isomer, unassigned) [Example 43, (2-{[(4-Chloropyridin-2-yl)methyl]amino}-7-methoxy-1,3-benzoxazol-5-yl) [5-(fluoromethyl)-2,2-dimethylmorpholin-4-yl]methanone] | 7.74 | 7.77 |
| COc1cc(C(=O)N2C[C@H](OC3CC3)C[C@H]2C(=O)N2CC(F)C2)cc2nc(NCc3cc(Cl)ccn3)oc12 [Example 11, (2-{[(4-Chloropyridin-2-yl)methyl]amino}-7-methoxy-1,3-benzoxazol-5-yl){(2S,4R)-4-(cyclopropyloxy)-2-[(3-fluoroazetidin-1-yl)carbonyl]pyrrolidin-1-yl}methanone] | 7.51 | 7.00 |
| COc1cc(C(=O)N2CC(C)NC(=O)C2CC#N)cc2nc(NCc3cc(Cl)ccn3)oc12 (single isomer, unassigned) [Example 92, {1-[(2-{[(4-Chloropyridin-2-yl)methyl]amino}-7-methoxy-1,3-benzoxazol-5-yl)carbonyl]-5-methyl-3-oxopiperazin-2-yl}acetonitrile] | 7.02 | 6.83 |
| CCC1C(=O)NC(C)CN1C(=O)c1cc(OC)c2oc(NCc3cc(Cl)ccn3)nc2c1 (single isomer, unassigned) [Example 80, 4-[(2-{[(4-Chloropyridin-2-yl)methyl]amino}-7-methoxy-1,3-benzoxazol-5-yl)carbonyl]-3-ethyl-6-methylpiperazin-2-one] | 7.80 | 7.80 |
| COc1cc(C(=O)N2CC3(CC3)NC(=O)C2C)cc2nc(NCc3cc(Cl)ccn3)oc12 (single isomer, unassigned) [Example 77, 7-[(2-{[(4-Chloropyridin-2-yl)methyl]amino}-7-methoxy-1,3-benzoxazol-5-yl)carbonyl]-6-methyl-4,7-diazaspiro[2.5]octan-5-one] | 7.85 | 7.64 |
| COc1cc(C(=O)N2CC(C)OCC2C2CC(O)C2)cc2nc(NCc3cc(Cl)ccn3)oc12 (single isomer, unassigned) [Example 47, (2-{[(4-Chloropyridin-2-yl)methyl]amino}-7-methoxy-1,3-benzoxazol-5-yl) [5-(3-hydroxycyclobutyl)-2-methylmorpholin-4-yl]methanone] | 7.96 | 7.62 |
| COc1cc(C(=O)N2CC(C)CCC2C2(O)CC2)cc2nc(NCc3cc(Cl)ccn3)oc12 (single isomer, unassigned) [Example 89, (2-{[(4-Chloropyridin-2-yl)methyl]amino}-7-methoxy-1,3-benzoxazol-5-yl) [2-(1-hydroxycyclopropyl)-5-methylpiperidin-1-yl]methanone] | 7.77 | 7.46 |
| COc1cc(C(=O)N2CC(C)OCC2(C)CO)cc2nc(NCc3cc(Cl)ccn3)oc12 (single isomer, unassigned) [Example 20, (2-{[(4-Chloropyridin-2-yl)methyl]amino}-7-methoxy-1,3-benzoxazol-5-yl) [5-(hydroxymethyl)-2,5-dimethylmorpholin-4-yl]methanone] | 7.44 | 7.18 |
| COc1cc(C(=O)N2CC(C)OCC2C2CC(O)C2)cc2nc(NCc3cc(Cl)ccn3)oc12 (single isomer, unassigned) [Example 48, (2-{[(4-Chloropyridin-2-yl)methyl]amino}-7-methoxy-1,3-benzoxazol-5-yl) [5-(3-hydroxycyclobutyl)-2-methylmorpholin-4-yl]methanone] | 7.96 | 7.80 |
| COc1cc(C(=O)N2CC(C)(C)OCC2CF)cc2nc(NCc3cc(Cl)ccn3)oc12 (racemic) [Example 42, (2-{[(4-Chloropyridin-2-yl)methyl]amino}-7-methoxy-1,3-benzoxazol-5-yl) [5-(fluoromethyl)-2,2-dimethylmorpholin-4-yl]methanone] | 7.57 | 7.47 |
| COc1cc(C(=O)N2CC(C)(C)OCC2(C)C(C)O)cc2nc(NCc3cc(Cl)ccn3)oc12 (stereo not drawn) [Example 69, (2-{[(4-Chloropyridin-2-yl)methyl]amino}-7-methoxy-1,3-benzoxazol-5-yl) [5-(1-hydroxyethyl)-2,2,5-trimethylmorpholin-4-yl]methanone] | 7.77 | 7.57 |

Stronger by pIC50 (thrombin [1]), values ahead:

| pIC50 (thrombin [1]) | pIC50 (thrombin [2]) | SMILES |
| --- | --- | --- |
| 8.49 | 7.77 | CC[C@@H]1COC(C)(CCO)CN1C(=O)c1cc(OC)c2oc(NCc3cc(Cl)ccn3)nc2c1 (stereo partly drawn) [Example 28] |
| 8.28 | 7.57 | COc1cc(C(=O)N2CC(C)CCC2CC2(O)CC2)cc2nc(NCc3cc(Cl)ccn3)oc12 (stereo not drawn) [Example 87, (2-{[(4-Chloropyridin-2-yl)methyl]amino}-7-methoxy-1,3-benzoxazol-5-yl){2-[(1-hydroxycyclopropyl)methyl]-5-methylpiperidin-1-yl}methanone] |
| 8.19 | 7.68 | COc1cc(C(=O)N2C[C@H](OC3CC3)C[C@H]2CO)cc2nc(NC(C)c3cc(Cl)ccn3)oc12 (single isomer, unassigned) [Example 15] |
| 8.21 | 7.72 | CCO[C@@H]1CC(CO)N(C(=O)c2cc(OC)c3oc(NCc4cc(Cl)ccn4)nc3c2)C1 (single isomer, unassigned) [Example 2] |
| 8.01 | 7.89 | [2H]C([2H])(C)O[C@@H]1CC(CC#N)N(C(=O)c2cc(OC)c3oc(NCc4cc(Cl)ccn4)nc3c2)C1 (single isomer, unassigned) [Example 9] |
| 8.06 | 7.77 | COc1cc(C(=O)N2CC(C)(C)OCC2C(C)(C)O)cc2nc(NCc3cc(Cl)ccn3)oc12 (single isomer, unassigned) [Example 93, (2-{[(4-Chloropyridin-2-yl)methyl]amino}-7-methoxy-1,3-benzoxazol-5-yl) [5-(2-hydroxypropan-2-yl)-2,2-dimethylmorpholin-4-yl]methanone] |
